# Results taken from patent US10294207B2, “Pyrazole derivatives as TNIK, IKKϵ and TBK1 inhibitor and pharmaceutical composition comprising same” (GREEN CROSS CORPORATION, priority 2015, dated 2019).
# Assays:
# TNIK = target: T1, TNIK (Homo sapiens, UniProt Q9UKE5); experiment: TNIK inhibition, ADP-Glo Kinase Assay; type: biochemical; settings: luminometer
# T1 construct: purchased Promega V4158
# Description: Inhibition activities on TNIK, IKKε and TBK1 were evaluated using the compounds of Examples 1 to 254.
# The inhibition activities on TNIK, IKKε and TBK1 were measured by a luminometer, TNIK/IKKε/TBK1 Kinase Enzyme System (Promega, Ca# V4158; Invitrogen, PR8031B, Promega, Ca# V3991) and ADP-Glo Kinase Assay using ADP-Glo™ Kinase Analysis Kit (Promega, Ca# V9101) and a kinase reaction buffer [40 mM Tris(pH 7.5), 20 mM MgCl2, 0.1 mg/mL BSA] in accordance with the manufacturer's protocol.
# TBK1 = target: T2, TBK1 (Homo sapiens, UniProt Q9UHD2); experiment: TBK1 inhibition, ADP-Glo Kinase Assay; type: biochemical; settings: luminometer
# T2 construct: purchased Promega V3991
# T2 sequence (Q9UHD2 1-729): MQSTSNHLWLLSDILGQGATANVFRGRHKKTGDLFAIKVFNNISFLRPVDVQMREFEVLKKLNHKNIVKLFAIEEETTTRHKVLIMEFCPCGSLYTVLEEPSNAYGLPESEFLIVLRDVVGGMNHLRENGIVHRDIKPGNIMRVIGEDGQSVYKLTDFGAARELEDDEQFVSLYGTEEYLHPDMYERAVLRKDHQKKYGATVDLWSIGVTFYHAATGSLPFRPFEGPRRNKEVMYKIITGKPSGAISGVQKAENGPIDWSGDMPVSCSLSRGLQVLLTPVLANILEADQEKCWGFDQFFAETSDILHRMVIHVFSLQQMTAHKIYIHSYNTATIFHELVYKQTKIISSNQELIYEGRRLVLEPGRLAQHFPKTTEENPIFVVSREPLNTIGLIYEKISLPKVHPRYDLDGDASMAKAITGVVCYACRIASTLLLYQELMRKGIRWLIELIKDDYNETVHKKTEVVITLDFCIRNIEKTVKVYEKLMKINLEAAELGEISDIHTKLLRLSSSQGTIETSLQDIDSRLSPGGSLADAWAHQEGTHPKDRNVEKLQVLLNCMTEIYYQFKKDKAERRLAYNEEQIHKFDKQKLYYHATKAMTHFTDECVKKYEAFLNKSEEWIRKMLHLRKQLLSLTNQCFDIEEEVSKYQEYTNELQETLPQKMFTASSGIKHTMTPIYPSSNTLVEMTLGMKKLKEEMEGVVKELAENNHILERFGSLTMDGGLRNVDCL
# Method in brief: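 ADP-Glo luminescence reported ADP produced by each kinase, following the kit protocol. Reactions used commercial kinase enzyme systems in buffer of 40 mM Tris (pH 7.5), 20 mM MgCl2 and 0.1 mg/mL BSA.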
# T1 sequence (Q9UKE5 1-367 limits assumed): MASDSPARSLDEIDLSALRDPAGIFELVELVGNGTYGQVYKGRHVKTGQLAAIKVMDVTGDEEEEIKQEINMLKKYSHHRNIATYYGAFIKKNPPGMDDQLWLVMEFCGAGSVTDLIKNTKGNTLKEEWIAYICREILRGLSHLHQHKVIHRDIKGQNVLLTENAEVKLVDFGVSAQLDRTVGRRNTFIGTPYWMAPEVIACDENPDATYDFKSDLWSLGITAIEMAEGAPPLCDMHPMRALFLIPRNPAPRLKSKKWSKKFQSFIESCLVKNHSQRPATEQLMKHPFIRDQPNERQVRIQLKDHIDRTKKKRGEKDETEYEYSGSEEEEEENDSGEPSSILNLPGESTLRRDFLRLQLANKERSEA
Structure (SMILES),IC50 (TNIK),IC50 (TBK1)
"CCNC(=O)c1cc2[nH]nc(-c3ccc(N4CCOCC4)cc3)c2s1 [Example 241, N-ethyl-3-(4-morpholinophenyl)-1H-thieno[3,2-c]pyrazole-5-carboxamide]",1.09 µM,> 10 µM
"Cc1cnc(-c2cc3[nH]nc(NC(=O)c4ccc(NCCN5CCCC5)cc4)c3s2)o1 [Example 226, N-(5-(5-methyloxazol-2-yl)-1H-thieno[3,2-c]pyrazol-3-yl)-4-((2-(pyrrolidin-1-yl)ethyl)amino)benzamide]",0.15 µM,0.12 µM
"Cc1cnc(-c2cc3[nH]nc(NC(=O)c4ccc(N(C)C)cc4)c3s2)o1 [Example 223, 4-(dimethylamino)-N-(5-(5-methyloxazol-2-yl)-1H-thieno[3,2-c]pyrazol-3-yl)benzamide]",0.11 µM,0.094 µM
"Cc1cnc(-c2cc3[nH]nc(NC(=O)c4ccc(F)cc4)c3s2)o1 [Example 221, 4-fluoro-N-(5-(5-methyloxazol-2-yl)-1H-thieno[3,2-c]pyrazol-3-yl)benzamide]",0.65 µM,1.7 µM
"Cc1cnc(-c2cc3[nH]nc(NC(=O)c4ccc(N5CCOCC5)cc4)c3s2)s1 [Example 219, N-(5-(5-methylthiazol-2-yl)-1H-thieno[3,2-c]pyrazol-3-yl)-4-morpholinobenzamide]",0.13 µM,0.33 µM
"COc1ccc(-c2n[nH]c3cc(-c4ncc(C)o4)sc23)cc1 [Example 235, 2-(3-(4-methoxyphenyl)-1H-thieno[3,2-c]pyrazol-5-yl)-5-methyloxazole]",0.34 µM,> 10 µM
"COCCNc1ccc(C(=O)Nc2n[nH]c3cc(-c4ncc(C)o4)sc23)cc1 [Example 229, 4-((2-methoxyethyl)amino)-N-(5-(5-methyloxazol-2-yl)-1H-thieno[3,2-c]pyrazol-3-yl)benzamide]",0.15 µM,0.14 µM
"Cc1cnc(-c2cc3[nH]nc(NC(=O)c4ccccc4)c3s2)o1 [Example 220, N-(5-(5-methyloxazol-2-yl)-1H-thieno[3,2-c]pyrazol-3-yl)benzamide]",0.36 µM,1.2 µM
"COC(=O)c1cc2[nH]nc(-c3ccccc3)c2s1 [Example 236, methyl 3-phenyl-1H-thieno[3,2-c]pyrazole-5-carboxylate]",1.27 µM,> 10 µM
"Cc1cnc(-c2cc3[nH]nc(NC(=O)c4ccc(NCCN5CCCCC5)cc4)c3s2)s1 [Example 253, N-(5-(5-methylthiazol-2-yl)-1H-thieno[3,2-c]pyrazol-3-yl)-4-((2-(piperidin-1-yl)ethyl)amino)benzamide]",0.28 µM,0.62 µM
"O=C(NCCN1CCOCC1)c1cc2[nH]nc(-c3ccc(F)cc3)c2s1 [Example 242, 3-(4-fluorophenyl)-N-(2-morpholinoethyl)-1H-thieno[3,2-c]pyrazole-5-carboxamide]",> 20 µM,> 10 µM
"Cc1cnc(-c2cc3[nH]nc(NC(=O)c4ccc(NCCN5CCOCC5)cc4)c3s2)o1 [Example 227, N-(5-(5-methyloxazol-2-yl)-1H-thieno[3,2-c]pyrazol-3-yl)-4-((2-morpholinoethyl)amino)benzamide]",0.085 µM,0.12 µM
"Cc1cnc(-c2cc3[nH]nc(NC(=O)c4cccc(F)c4)c3s2)o1 [Example 230, 3-fluoro-N-(5-(5-methyloxazol-2-yl)-1H-thieno[3,2-c]pyrazol-3-yl)benzamide]",0.66 µM,1.7 µM
"COC(=O)c1cc2[nH]nc(-c3ccc(N4CCOCC4)cc3)c2s1 [Example 254, methyl 3-(4-morpholinophenyl)-1H-thieno[3,2-c]pyrazole-5-carboxylate]",0.3 µM,> 10 µM
"COc1ccc(-c2n[nH]c3cc(C(=O)NC(C)C)sc23)cc1 [Example 233, N-isopropyl-3-(4-methoxyphenyl)-1H-thieno[3,2-c]pyrazole-5-carboxamide]",2.86 µM,> 10 µM
